One compound from paper PMC7500466, “Inhibition of JNK-Mediated Autophagy Promotes Proscillaridin A- Induced Apoptosis via ROS Generation, Intracellular Ca^+2 Oscillation and Inhibiting STAT3 Signaling in Breast Cancer Cells” (Frontiers in Pharmacology, 2020) can be followed below.

SMILES strings stand for the structures.

Broadly, the Kd is the concentration at which binding is half-saturated.

The experiment has as its target T1, STAT3 (signal transducer and activator of transcription 3) (Homo sapiens, UniProt P40763).
T1 construct: Recombinant human STAT3 protein
Kind of experiment: SPR, STAT3 immobilized on C5 sensor chip, PSD-A […]. The experiment is classed as binding.

T1 sequence (P40763 2-770): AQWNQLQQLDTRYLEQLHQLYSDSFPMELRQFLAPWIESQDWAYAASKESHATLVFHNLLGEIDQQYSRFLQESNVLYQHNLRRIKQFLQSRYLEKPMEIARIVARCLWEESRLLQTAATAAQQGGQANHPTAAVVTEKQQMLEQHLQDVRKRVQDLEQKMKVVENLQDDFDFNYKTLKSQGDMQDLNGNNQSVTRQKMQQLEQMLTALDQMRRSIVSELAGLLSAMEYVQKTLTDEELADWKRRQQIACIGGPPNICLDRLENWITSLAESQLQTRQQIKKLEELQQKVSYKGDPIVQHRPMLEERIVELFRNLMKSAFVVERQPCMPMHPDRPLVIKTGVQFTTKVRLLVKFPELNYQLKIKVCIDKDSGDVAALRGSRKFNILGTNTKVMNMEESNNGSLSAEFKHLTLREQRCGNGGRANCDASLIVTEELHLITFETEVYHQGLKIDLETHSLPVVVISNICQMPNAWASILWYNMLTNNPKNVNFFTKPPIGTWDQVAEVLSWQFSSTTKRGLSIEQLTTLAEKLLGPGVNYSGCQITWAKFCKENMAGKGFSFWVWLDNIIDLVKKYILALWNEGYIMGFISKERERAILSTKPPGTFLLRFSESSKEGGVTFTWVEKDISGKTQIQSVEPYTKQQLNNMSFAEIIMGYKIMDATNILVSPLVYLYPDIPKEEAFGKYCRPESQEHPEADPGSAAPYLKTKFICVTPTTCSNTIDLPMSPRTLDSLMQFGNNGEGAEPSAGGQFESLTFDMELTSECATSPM

For the compound `C[C@@H]1O[C@@H](O[C@@H]2C=C3CC[C@@H]4[C@H](CC[C@]5(C)[C@@H](c6ccc(=O)oc6)CC[C@]45O)[C@@]3(C)CC2)[C@H](O)[C@H](O)[C@H]1O` [PSD-A, Proscillaridin A], the Kd was approximately 160 nM.
